{"source": "patent US8835644B2", "about": "“Broad spectrum benzothiophene-nitrothiazolide and other antimicrobials” (University of Virginia Patent Foundation, priority 2009, dated 2014)", "key": {"C. difficile [1]": {"system": "C. difficile", "assay": "MIC by agar dilution, C. difficile", "format": "cell-based, Clostridium difficile", "procedure": "A standard broth dilution protocol was used in 96 well microplates containing a standard dilution of the microorganism to be tested in 100 microliters of the appropriate medium. Appropriate medium: E. coli, LB medium; Staphylococcus strains, Trypticase Soy; and for H. pylori and C. jejuni, Brain Heart Infusion. The compounds to be tested were set at 32 μg/ml in 200 microliters in well one and then serially diluted to provide a range from 32 to 0.06. The wells were scored visually at 24 h. The well where there was no growth was recorded as the MIC. […]\n(§1) Representative compounds of the invention were tested in a series of assays against a series of organisms as described above. […] The organisms tested include, C. difficile, H. pylori, C. jejuni, MRSA, S. epidermidis, and E. coli. S. epidermidis and E. coli were tested in the plank and biofilm assay. A disk diffusion assay was also used for C. difficile. Direct PFOR enzyme assays were also performed. All analogues and derivatives were not tested on every organism in every type of assay (the “-” in each table means that it was not tested)."}, "H. pylori": {"system": "H. pylori", "assay": "MIC testing by broth dilution, H. pylori", "format": "cell-based, Helicobacter pylori", "procedure,_shortened": "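Helicobacter pylori was tested using a standard broth dilution method in 96 well microplates, each well holding a standard dilution of the organism in 100 microliters of Brain Heart Infusion. Compounds started at 32 μg/ml in 200 microliters in the first well and were serially diluted from 32 to 0.06. Wells were read visually at 24 h, and the MIC was the well with no growth.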"}, "C. jejuni": {"system": "C. jejuni", "assay": "MIC testing by broth dilution, C. jejuni", "format": "cell-based, Campylobacter jejuni", "procedure,_shortened": "(§2)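 Twofold broth microdilution from 32 μg/ml down to 0.06, in LB for E. coli, Trypticase Soy for S. epidermidis (planktonic) and Brain Heart Infusion for C. jejuni. C. difficile: anaerobic disk diffusion on Wilkins Chalgrin agar, inhibition zone expressed as a ratio to the NTZ zone.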"}, "MRSA": {"system": "MRSA", "assay": "MIC testing by broth dilution, MRSA", "format": "cell-based, Staphylococcus aureus", "procedure,_shortened": "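Values are broth-dilution MICs, defined as the well showing no growth on visual reading after 24 h; the tested range was 32 to 0.06 μg/ml, in organism-specific media (LB, Trypticase Soy, Brain Heart Infusion). The C. difficile entries come instead from anaerobic Kirby-Bauer disk zones, normalised to NTZ.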"}, "E. coli": {"system": "E. coli", "assay": "MIC testing by broth dilution, E. coli plank", "format": "cell-based, Escherichia coli", "procedure,_shortened": "as §2"}, "E. coli biofilm": {"system": "E. coli biofilm", "assay": "E. coli biofilm assay (activity tables)", "format": "cell-based, Escherichia coli", "procedure,_shortened": "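E. coli strain 042 inoculated 1:100 with NTZ-containing medium and grown statically at 37 °C for 24 h. Growth measured by turbidity or plate counts (cfu/ml); biofilm stained with 0.5% crystal violet and read at 570 nm; triplicate, mean ± SD.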"}, "C. difficile [2]": {"system": "C. difficile", "assay": "Disk diffusion (Kirby Bower), C. difficile", "format": "cell-based, Clostridium difficile", "settings": "for Disk Diff (%) C. difficile: Nitazoxanide = 100, Furan analogues table; for Disk Diffusion (%) C. difficile: zone of inhibited growth as relative ratio to the zone for NTZ", "procedure,_shortened": "as §2"}, "[3]": {"system": "PFOR (pyruvate ferredoxin oxidoreductase)", "assay": "Direct PFOR enzyme assay", "format": "biochemical", "procedure": "as §1"}, "S. epidermidis": {"system": "S. epidermidis", "assay": "MIC testing by broth dilution, S. epidermidis plank", "format": "cell-based, Staphylococcus epidermidis", "procedure,_shortened": "as §2"}, "S. epidermidis biofilm": {"system": "S. epidermidis biofilm", "assay": "S. epidermidis biofilm assay (activity tables)", "format": "cell-based, Staphylococcus epidermidis", "settings": "Furan analogues table", "procedure,_shortened": "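Overnight TSB cultures diluted to OD600 0.01 and grown static with compound (triplicate) at 37° C for 16 h; turbidity recorded for growth. Biofilm: washed wells ethanol-fixed, stained with 0.5% crystal violet, A570 read before and after 95% ethanol extraction; mean ± SD.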"}, "[4]": {"settings": "Furan analogues table, read-out: MIC H. pylori"}, "[5]": {"settings": "Furan analogues table, read-out: MIC C. jejuni"}, "[6]": {"settings": "Furan analogues table, read-out: MIC MRSA"}, "[7]": {"settings": "planktonic, Furan analogues table, read-out: MIC S. epidermidis Plank"}, "[8]": {"settings": "planktonic, Furan analogues table, read-out: MIC E. coli Plank"}, "[9]": {"settings": "biofilm, Furan analogues table, read-out: MIC E. coli Biofilm"}}, "note": "Where two headings read alike, the source gives them in different places."}
{"smiles": "O=C(Nc1ncc([N+](=O)[O-])s1)c1ccoc1", "note": "[VPC16a1006, N-(5-Nitrothiazol-2-yl)furan-3-carboxamide]", "values": [{"measurement": "MIC", "setting": "C. difficile [1]; Clostridioides difficile, Furan analogues table, read-out: MIC C. difficile", "value": 33.4, "unit": "µM"}, {"measurement": "MIC", "setting": "H. pylori; Helicobacter pylori, Furan analogues table, read-out: MIC H. pylori", "value": 0.8, "unit": "µM"}, {"measurement": "MIC", "setting": "C. jejuni; Campylobacter jejuni, Furan analogues table, read-out: MIC C. jejuni", "value": 12.5, "unit": "µM"}, {"measurement": "MIC", "setting": "MRSA; Staphylococcus aureus, MRSA, Furan analogues table, read-out: MIC MRSA", "value": 50.2, "unit": "µM"}, {"measurement": "MIC", "setting": "E. coli; Escherichia coli, planktonic, Furan analogues table, read-out: MIC E. coli Plank", "value": 134, "unit": "µM"}, {"measurement": "MIC", "setting": "E. coli biofilm; Escherichia coli, biofilm, Furan analogues table, read-out: MIC E. coli Biofilm", "value": 134, "unit": "µM"}, {"measurement": "Disk Diff (%) C. difficile", "setting": "C. difficile [2]", "value": "97 ± 3", "unit": "%"}, {"measurement": "PFOR inhibition relative to nitazoxanide (=100)", "setting": "[3]; Furan analogues table", "value": 98, "unit": "%"}]}
{"smiles": "CCCCCC(=O)Nc1ncc([N+](=O)[O-])s1", "note": "[VPC16a1007, N-(5-Nitrothiazol-2-yl)hexanamide]", "values": [{"measurement": "MIC", "setting": "C. difficile [1]; Clostridioides difficile, agar dilution, anaerobic, Wilkins Chalgrin agar, read-out: MIC (μM) C. difficile", "value": 65.8, "unit": "µM"}, {"measurement": "MIC", "setting": "H. pylori; Helicobacter pylori, broth dilution, Brain Heart Infusion, 24 h, read-out: MIC (μM) H. pylori", "value": 1.4, "unit": "µM"}, {"measurement": "MIC", "setting": "C. jejuni; Campylobacter jejuni, broth dilution, Brain Heart Infusion, 24 h, read-out: MIC (μM) C. jejuni", "value": 5.5, "unit": "µM"}, {"measurement": "MIC", "setting": "S. epidermidis; Staphylococcus epidermidis, broth dilution, Trypticase Soy, 24 h, read-out: MIC (μM) S. epidermidis Plank", "value": 32.9, "unit": "µM"}, {"measurement": "MIC", "setting": "E. coli; Escherichia coli, broth dilution, LB medium, 24 h, read-out: MIC (μM) E. coli Plank", "value": 132, "unit": "µM"}, {"measurement": "MIC", "setting": "E. coli biofilm; Escherichia coli, read-out: MIC (μM) E. coli Biofilm", "value": 132, "unit": "µM"}, {"measurement": "Disk Diffusion (%) C. difficile", "setting": "C. difficile [2]", "value": "56.5 ± 0.5", "unit": "%"}, {"measurement": "PFOR inhibition relative to nitazoxanide (=100)", "setting": "[3]", "value": 123, "unit": "%"}]}
{"smiles": "O=C(Nc1ncc([N+](=O)[O-])s1)C1CCCCC1", "note": "[VPC16a1010]", "values": [{"measurement": "MIC", "setting": "C. difficile [1]; agar dilution, anaerobic, Wilkins Chalgrin agar, read-out: MIC (μM) C. difficile", "value": 62.6, "unit": "µM"}, {"measurement": "MIC", "setting": "H. pylori; broth dilution, Brain Heart Infusion, 24 h, read-out: MIC (μM) H. pylori", "value": 0.7, "unit": "µM"}, {"measurement": "MIC", "setting": "C. jejuni; broth dilution, Brain Heart Infusion, 24 h, read-out: MIC (μM) C. jejuni", "value": 11.4, "unit": "µM"}, {"measurement": "MIC", "setting": "MRSA; broth dilution, Trypticase Soy, 24 h, read-out: MIC (μM) MRSA", "value": 125.2, "unit": "µM"}, {"measurement": "MIC", "setting": "S. epidermidis; broth dilution, Trypticase Soy, 24 h, read-out: MIC (μM) S. epidermidis Plank", "value": 31.3, "unit": "µM"}, {"measurement": "MIC", "setting": "E. coli; broth dilution, LB medium, 24 h, read-out: MIC (μM) E. coli Plank", "value": 125.2, "unit": "µM"}, {"measurement": "MIC", "setting": "E. coli biofilm; biofilm, read-out: MIC (μM) E. coli Biofilm", "value": 31.3, "unit": "µM"}, {"measurement": "Disk Diffusion (%) C. difficile", "setting": "C. difficile [2]", "value": "53 ± 3", "unit": "%"}, {"measurement": "PFOR inhibition relative to nitazoxanide (=100)", "setting": "[3]", "value": 93, "unit": "%"}]}
{"smiles": "O=C(Nc1ncc([N+](=O)[O-])s1)c1ccc([N+](=O)[O-])o1", "note": "[VPC16b1007]", "values": [{"measurement": "MIC", "setting": "C. difficile [1]; Furan analogues table, read-out: MIC C. difficile", "value": 28.2, "unit": "µM"}, {"measurement": "MIC", "setting": "H. pylori; [4]", "value": 21.1, "unit": "µM"}, {"measurement": "MIC", "setting": "C. jejuni; [5]", "value": 7.0, "unit": "µM"}, {"measurement": "MIC", "setting": "MRSA; [6]", "value": 112.6, "unit": "µM"}, {"measurement": "MIC", "setting": "S. epidermidis; [7]", "value": 28.1, "unit": "µM"}, {"measurement": "MIC S. epidermidis Biofilm", "setting": "S. epidermidis biofilm", "value": 56.3, "unit": "µM"}, {"measurement": "MIC", "setting": "E. coli; [8]", "value": 14.1, "unit": "µM"}, {"measurement": "MIC", "setting": "E. coli biofilm; [9]", "value": 26.4, "unit": "µM"}, {"measurement": "Disk Diff (%) C. difficile", "setting": "C. difficile [2]", "value": "102 ± 8", "unit": "%"}]}
{"smiles": "O=C(Nc1ncc([N+](=O)[O-])s1)c1ccco1", "note": "[VPC161124]", "values": [{"measurement": "MIC", "setting": "H. pylori; [4]", "value": 1.0, "unit": "µM"}, {"measurement": "MIC", "setting": "C. jejuni; [5]", "value": 8.4, "unit": "µM"}, {"measurement": "MIC", "setting": "MRSA; [6]", "value": 50.2, "unit": "µM"}, {"measurement": "MIC", "setting": "S. epidermidis; [7]", "value": 66.9, "unit": "µM"}, {"measurement": "MIC S. epidermidis Biofilm", "setting": "S. epidermidis biofilm", "value": 66.9, "unit": "µM"}, {"measurement": "MIC", "setting": "E. coli; [8]", "value": 133.8, "unit": "µM"}, {"measurement": "MIC", "setting": "E. coli biofilm; [9]", "value": 33.4, "unit": "µM"}, {"measurement": "Disk Diff (%) C. difficile", "setting": "C. difficile [2]", "value": 100, "unit": "%"}, {"measurement": "PFOR inhibition relative to nitazoxanide (=100)", "setting": "[3]; Furan analogues table", "value": 82, "unit": "%"}]}
